One experiment deals with T1, Adenosine receptor A3 (Homo sapiens, UniProt P0DMS8).
T1 sequence (P0DMS8 whole entry): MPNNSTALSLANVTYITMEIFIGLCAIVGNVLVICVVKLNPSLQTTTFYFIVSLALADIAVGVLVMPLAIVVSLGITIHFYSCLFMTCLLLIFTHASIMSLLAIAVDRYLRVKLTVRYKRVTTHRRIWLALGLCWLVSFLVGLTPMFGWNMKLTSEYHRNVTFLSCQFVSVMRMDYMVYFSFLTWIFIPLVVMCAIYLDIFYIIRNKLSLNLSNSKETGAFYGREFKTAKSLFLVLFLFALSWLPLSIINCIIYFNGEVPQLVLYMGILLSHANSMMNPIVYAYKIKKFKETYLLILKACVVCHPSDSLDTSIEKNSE

In experiment [1] the target is 5-hydroxytryptamine receptor 2A (Homo sapiens, UniProt P28223). Format: functional, cell-based.
Chain of 5-hydroxytryptamine receptor 2A (P28223 whole entry): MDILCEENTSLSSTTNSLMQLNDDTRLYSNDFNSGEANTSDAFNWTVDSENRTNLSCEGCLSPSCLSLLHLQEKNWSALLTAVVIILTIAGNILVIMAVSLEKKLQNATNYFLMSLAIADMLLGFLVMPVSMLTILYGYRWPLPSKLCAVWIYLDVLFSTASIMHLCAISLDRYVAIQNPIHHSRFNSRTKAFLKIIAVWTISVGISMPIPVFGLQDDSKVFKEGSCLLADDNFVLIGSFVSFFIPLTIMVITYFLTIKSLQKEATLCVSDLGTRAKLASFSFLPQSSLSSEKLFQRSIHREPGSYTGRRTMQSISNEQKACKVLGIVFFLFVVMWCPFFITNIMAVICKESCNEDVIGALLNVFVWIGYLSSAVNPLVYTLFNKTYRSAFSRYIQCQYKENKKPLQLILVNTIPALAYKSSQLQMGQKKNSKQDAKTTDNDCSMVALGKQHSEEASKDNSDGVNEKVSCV
A further experiment concerns the target Melanocortin receptor 3 (Homo sapiens, UniProt P41968).
Experiment [2] has as its target Beta-2 adrenergic receptor (Homo sapiens, UniProt P07550).
The target of the next experiment is T2, Progesterone receptor (Homo sapiens, UniProt P06401).
T2 sequence (P06401 whole entry): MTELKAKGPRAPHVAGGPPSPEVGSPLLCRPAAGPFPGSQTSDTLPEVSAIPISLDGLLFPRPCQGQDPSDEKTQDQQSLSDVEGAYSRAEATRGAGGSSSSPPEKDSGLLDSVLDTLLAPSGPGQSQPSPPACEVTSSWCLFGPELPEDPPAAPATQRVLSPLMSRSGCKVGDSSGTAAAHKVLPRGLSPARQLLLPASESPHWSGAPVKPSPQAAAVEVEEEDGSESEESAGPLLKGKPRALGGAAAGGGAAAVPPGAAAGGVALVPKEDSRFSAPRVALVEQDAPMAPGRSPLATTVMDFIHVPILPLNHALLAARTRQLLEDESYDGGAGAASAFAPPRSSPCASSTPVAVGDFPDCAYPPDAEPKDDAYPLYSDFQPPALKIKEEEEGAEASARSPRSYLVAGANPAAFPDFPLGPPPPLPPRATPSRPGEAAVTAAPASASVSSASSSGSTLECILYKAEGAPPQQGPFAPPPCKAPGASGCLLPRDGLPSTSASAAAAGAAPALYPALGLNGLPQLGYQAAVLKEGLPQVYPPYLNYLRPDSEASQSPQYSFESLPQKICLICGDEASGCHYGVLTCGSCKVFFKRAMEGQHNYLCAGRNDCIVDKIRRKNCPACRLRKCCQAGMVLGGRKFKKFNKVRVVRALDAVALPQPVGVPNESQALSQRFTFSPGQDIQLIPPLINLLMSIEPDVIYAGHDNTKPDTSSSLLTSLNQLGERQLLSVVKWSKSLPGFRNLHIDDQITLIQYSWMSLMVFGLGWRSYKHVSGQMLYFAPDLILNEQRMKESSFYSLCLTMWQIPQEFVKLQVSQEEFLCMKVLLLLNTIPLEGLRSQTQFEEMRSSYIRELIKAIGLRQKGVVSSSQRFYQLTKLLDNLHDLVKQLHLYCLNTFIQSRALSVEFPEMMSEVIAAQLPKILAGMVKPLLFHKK
Format: functional.

A further experiment addresses Vasopressin V2 receptor (Homo sapiens, UniProt P30518).
The target of experiment [3] is T3, 5-hydroxytryptamine receptor 1A (Homo sapiens, UniProt P08908).
T3 sequence (P08908 whole entry): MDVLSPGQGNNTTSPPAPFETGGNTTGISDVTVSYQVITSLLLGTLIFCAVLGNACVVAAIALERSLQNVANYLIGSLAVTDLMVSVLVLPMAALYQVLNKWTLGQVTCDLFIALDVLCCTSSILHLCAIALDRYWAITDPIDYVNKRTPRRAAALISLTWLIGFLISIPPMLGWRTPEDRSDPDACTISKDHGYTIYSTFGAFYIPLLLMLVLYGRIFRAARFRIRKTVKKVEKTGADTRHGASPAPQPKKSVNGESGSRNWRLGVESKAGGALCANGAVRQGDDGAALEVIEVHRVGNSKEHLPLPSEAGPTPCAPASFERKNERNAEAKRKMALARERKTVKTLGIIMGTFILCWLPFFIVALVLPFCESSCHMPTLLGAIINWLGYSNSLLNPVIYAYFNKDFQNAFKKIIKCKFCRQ
Format: functional, cell-based.

The target of experiment [4] is Growth hormone secretagogue receptor type 1 (Homo sapiens, UniProt Q92847).
Chain of Growth hormone secretagogue receptor type 1 (Q92847 whole entry): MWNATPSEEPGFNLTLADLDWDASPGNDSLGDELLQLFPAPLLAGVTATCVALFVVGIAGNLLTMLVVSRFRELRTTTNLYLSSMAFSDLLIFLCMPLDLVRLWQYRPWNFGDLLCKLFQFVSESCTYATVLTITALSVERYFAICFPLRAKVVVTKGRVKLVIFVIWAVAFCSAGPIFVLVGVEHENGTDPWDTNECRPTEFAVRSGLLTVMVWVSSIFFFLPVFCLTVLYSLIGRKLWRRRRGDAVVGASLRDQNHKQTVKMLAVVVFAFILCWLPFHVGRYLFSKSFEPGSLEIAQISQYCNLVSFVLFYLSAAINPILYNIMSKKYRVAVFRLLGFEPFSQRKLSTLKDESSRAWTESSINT
In experiment [5] the target is T4, Alpha-2B adrenergic receptor (Homo sapiens, UniProt P18089).
T4 sequence (P18089 whole entry): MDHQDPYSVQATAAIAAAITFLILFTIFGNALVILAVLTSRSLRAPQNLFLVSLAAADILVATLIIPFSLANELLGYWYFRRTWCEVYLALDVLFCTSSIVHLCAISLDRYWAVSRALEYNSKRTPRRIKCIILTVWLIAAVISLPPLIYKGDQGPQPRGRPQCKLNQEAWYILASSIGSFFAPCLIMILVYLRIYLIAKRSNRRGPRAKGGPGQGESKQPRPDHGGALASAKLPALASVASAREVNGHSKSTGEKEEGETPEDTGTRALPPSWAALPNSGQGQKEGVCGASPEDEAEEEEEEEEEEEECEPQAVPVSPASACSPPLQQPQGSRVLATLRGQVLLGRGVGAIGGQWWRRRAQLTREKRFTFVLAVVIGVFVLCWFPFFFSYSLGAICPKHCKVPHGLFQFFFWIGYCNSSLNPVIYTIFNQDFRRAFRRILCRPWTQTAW

Another experiment addresses T5, Thromboxane A2 receptor (Homo sapiens, UniProt P21731).
T5 sequence (P21731 whole entry): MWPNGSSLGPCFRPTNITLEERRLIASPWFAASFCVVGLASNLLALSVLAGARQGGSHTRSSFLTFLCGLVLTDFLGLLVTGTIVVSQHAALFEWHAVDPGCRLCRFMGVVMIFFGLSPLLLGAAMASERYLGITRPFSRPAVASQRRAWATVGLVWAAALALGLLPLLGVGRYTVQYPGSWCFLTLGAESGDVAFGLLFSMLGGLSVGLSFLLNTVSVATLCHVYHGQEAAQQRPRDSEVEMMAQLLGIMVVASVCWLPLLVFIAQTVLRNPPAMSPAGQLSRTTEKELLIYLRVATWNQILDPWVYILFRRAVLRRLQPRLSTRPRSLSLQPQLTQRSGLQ

In ChEMBL document CHEMBL5291721, “A preclinical secondary pharmacology resource illuminates target-adverse drug reaction associations of marketed drugs” (Nat Commun, 2023) one finds AC50 data, which are given here for twelve compounds.

Usually AC50 stands for the midpoint of the concentration-response curve, whichever way the signal moves.

Where only a bound is given, the exact number is not on record here.
Further: assay procedure not described here.

Chain of Melanocortin receptor 3 (P41968 whole entry): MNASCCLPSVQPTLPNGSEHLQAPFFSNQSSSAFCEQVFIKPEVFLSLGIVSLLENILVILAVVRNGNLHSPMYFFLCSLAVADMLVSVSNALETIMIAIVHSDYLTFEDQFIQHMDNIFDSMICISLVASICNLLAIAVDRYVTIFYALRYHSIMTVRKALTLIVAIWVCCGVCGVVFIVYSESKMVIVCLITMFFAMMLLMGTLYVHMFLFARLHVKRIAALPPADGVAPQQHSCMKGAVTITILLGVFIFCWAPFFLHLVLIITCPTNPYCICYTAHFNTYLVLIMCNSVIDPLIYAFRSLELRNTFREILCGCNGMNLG
Chain of Beta-2 adrenergic receptor (P07550 whole entry): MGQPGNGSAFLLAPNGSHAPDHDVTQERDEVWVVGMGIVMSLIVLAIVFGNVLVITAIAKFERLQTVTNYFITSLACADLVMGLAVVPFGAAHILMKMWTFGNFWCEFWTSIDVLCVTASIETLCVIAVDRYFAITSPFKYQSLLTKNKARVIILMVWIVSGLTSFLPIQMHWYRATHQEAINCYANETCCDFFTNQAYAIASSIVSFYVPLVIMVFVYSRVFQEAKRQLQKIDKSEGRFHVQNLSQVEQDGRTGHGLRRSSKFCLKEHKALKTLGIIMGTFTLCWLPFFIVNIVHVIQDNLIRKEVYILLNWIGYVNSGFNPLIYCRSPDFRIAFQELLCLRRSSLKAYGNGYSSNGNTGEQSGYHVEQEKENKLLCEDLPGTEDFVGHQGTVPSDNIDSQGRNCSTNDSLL
Chain of Vasopressin V2 receptor (P30518 whole entry): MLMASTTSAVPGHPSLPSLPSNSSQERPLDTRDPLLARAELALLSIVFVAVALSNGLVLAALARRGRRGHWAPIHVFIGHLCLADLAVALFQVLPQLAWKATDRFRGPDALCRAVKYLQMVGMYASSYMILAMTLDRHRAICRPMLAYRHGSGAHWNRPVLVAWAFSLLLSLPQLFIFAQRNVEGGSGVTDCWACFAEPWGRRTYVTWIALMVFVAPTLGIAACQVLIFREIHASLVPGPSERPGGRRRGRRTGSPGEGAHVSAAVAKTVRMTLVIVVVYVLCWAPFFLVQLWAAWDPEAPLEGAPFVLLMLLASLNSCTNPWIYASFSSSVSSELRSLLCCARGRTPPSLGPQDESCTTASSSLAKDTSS

Turning to `Cc1ccc(-c2nc3ccc(C)cn3c2CC(=O)N(C)C)cc1` [ZOLPIDEM], the concentration at half-maximal activity (AC50) (at Adenosine receptor A3; in experiment [1]; on Melanocortin receptor 3; in [2]; at Progesterone receptor; on Vasopressin V2 receptor) was above 30 µM each time. Further, the AC50 was above 10 µM in experiment [3], above 30 µM in experiment [4], above 30 µM in experiment [5] and above 30 µM on Thromboxane A2 receptor.
As for `CCCCCN(C)CCC(O)(P(=O)(O)O)P(=O)(O)O` [IBANDRONIC ACID], the concentration at half-maximal activity (AC50) (at Adenosine receptor A3; in experiment [1]; at Melanocortin receptor 3; in experiment [2]; on Progesterone receptor; on Vasopressin V2 receptor) was above 30 µM each time. The AC50 in experiment [3] is above 10 µM; in [4], above 30 µM; in experiment [5], above 30 µM; on Thromboxane A2 receptor, above 30 µM.
Consider `CCC(C(=O)O)c1ccc(CC(C)C)cc1` (stereo not given) [BUTIBUFEN], for which the half-maximal activity concentration (AC50) (on Adenosine receptor A3; in experiment [1]; on Melanocortin receptor 3; in experiment [2]; on Progesterone receptor; at Vasopressin V2 receptor) was above 30 µM throughout. Moreover, the AC50 (in experiment [3]; in experiment [4]; in [5]; at Thromboxane A2 receptor) was above 30 µM each time.
Take `CCCCOc1cc(C(=O)NCCN(CC)CC)c2ccccc2n1` [DIBUCAINE]: the AC50 on Adenosine receptor A3 was above 30 µM; in experiment [1] it was above 10 µM; on Melanocortin receptor 3, above 30 µM; in [2], above 10 µM; at Progesterone receptor it was above 10 µM; on Vasopressin V2 receptor, above 30 µM. Also, the AC50 is above 10 µM in experiment [3], 15.8 µM in experiment [4], above 10 µM in experiment [5] and above 30 µM on Thromboxane A2 receptor.
In the case of `C#C[C@]1(O)CC[C@H]2[C@@H]3CCC4=CCCC[C@@H]4[C@H]3CC[C@@]21C` [LYNESTRENOL], the AC50 is above 30 µM on Adenosine receptor A3; above 30 µM in experiment [1]; above 30 µM on Melanocortin receptor 3; above 30 µM in [2]; 5.2 µM at Progesterone receptor; above 30 µM on Vasopressin V2 receptor. Also, the AC50 (in experiment [3]; in [4]; in experiment [5]; at Thromboxane A2 receptor) was above 30 µM in each case.
In the case of `COC(=O)C1=C(C)NC(C)=C(C(=O)OC(C)C)C1c1cccc2nonc12` (stereo not given) [ISRADIPINE], the AC50 at Adenosine receptor A3 is 20.3 µM; in experiment [1], above 10 µM; at Melanocortin receptor 3 it was above 30 µM; in experiment [2] it was above 10 µM; at Progesterone receptor, above 30 µM; on Vasopressin V2 receptor, above 30 µM. In addition, the AC50 is above 10 µM in experiment [3], above 30 µM in [4], above 30 µM in experiment [5] and 20.1 µM on Thromboxane A2 receptor.
On to `CC(=O)OCC(=O)[C@@]12OC3(CCCC3)O[C@@H]1C[C@H]1[C@@H]3CCC4=CC(=O)C=C[C@]4(C)[C@@]3(F)[C@@H](O)C[C@@]12C` [AMCINONIDE], for which the AC50 on Adenosine receptor A3 was above 10 µM; in [1], above 10 µM; at Melanocortin receptor 3, above 10 µM; in experiment [2] it was above 10 µM; on Progesterone receptor, 0.212 µM; on Vasopressin V2 receptor, above 10 µM. Further, the AC50 (in experiment [3]; in experiment [4]; in [5]; on Thromboxane A2 receptor) was above 10 µM throughout.
For the compound `C1=Cc2cccc(OCC3CNCCO3)c2C1` (stereo not given) [INDELOXAZINE], the concentration at half-maximal activity (AC50) at Adenosine receptor A3 is above 30 µM; in experiment [1] it was 17 µM; on Melanocortin receptor 3, above 30 µM; in experiment [2] it was above 30 µM; on Progesterone receptor, above 30 µM; on Vasopressin V2 receptor it was above 30 µM. Besides, the AC50 (in [3]; in experiment [4]; in experiment [5]; on Thromboxane A2 receptor) was above 30 µM each time.
Regarding `C#CCN[C@@H]1CCc2ccccc21` [RASAGILINE], the AC50 (at Adenosine receptor A3; in [1]; at Melanocortin receptor 3; in experiment [2]; on Progesterone receptor; at Vasopressin V2 receptor) was above 30 µM in each case. Besides, the AC50 in experiment [3] is above 30 µM; in experiment [4] it was above 30 µM; in [5] it was 8.79 µM; on Thromboxane A2 receptor it was above 30 µM.
With `CN1CCC2=C(C1)C(c1ccccc1)c1ccccc12` (stereo not given) [PHENINDAMINE], the half-maximal activity concentration (AC50) is above 10 µM on Adenosine receptor A3; above 10 µM in [1]; above 10 µM at Melanocortin receptor 3; above 10 µM in experiment [2]; above 30 µM at Progesterone receptor; above 10 µM on Vasopressin V2 receptor. Moreover, the AC50 (in [3]; in [4]; in experiment [5]; on Thromboxane A2 receptor) was above 10 µM in each case.
On to `C#CC1(OC(N)=O)CCCCC1` [ETHINAMATE], for which the half-maximal activity concentration (AC50) (at Adenosine receptor A3; in [1]; on Melanocortin receptor 3; in experiment [2]; on Progesterone receptor; at Vasopressin V2 receptor) was above 10 µM each time. In addition, the half-maximal activity concentration (AC50) (in [3]; in [4]; in experiment [5]; at Thromboxane A2 receptor) was above 10 µM throughout.
For `CN1C(=O)CC(=O)N(c2ccccc2)c2cc(Cl)ccc21` [CLOBAZAM], the AC50 (on Adenosine receptor A3; in [1]; on Melanocortin receptor 3; in experiment [2]; at Progesterone receptor; at Vasopressin V2 receptor) was above 10 µM throughout. Besides, the half-maximal activity concentration (AC50) (in experiment [3]; in experiment [4]; in [5]; on Thromboxane A2 receptor) was above 10 µM throughout.
